The values that follow come from US20080194482A1, “Selective Apac2 Receptor Peptide Agonists” (priority 2005, published 2008).

SMILES strings stand for the structures. Square brackets hold non-standard residues; d marks the D form. Peptide text beside a SMILES is read from it. * marks the point of attachment. Orn = NCCC[C@H](N)C(=O)O; Hexanoyl = CCCCCC(=O)*; Aib = CC(C)(N)C(=O)O

Series [1] is described as follows: Rat serum stability (activity remaining, CHO-VPAC2 DiscoveRx read-out). It is filed as in vitro ADME. Here is the method:
The rat serum is stored at 4° C. until use and is used within two weeks. […] The aliquot is stored with aprotinin at 4° C. The aliquot is stored without aprotinin at 37° C. The aliquots are incubated overnight. […] The plate(s) are washed with cells twice in incubation buffer. The plates are allowed to hold 50 μL incubation media per well for 15 minutes. 50 μL solution per well is transferred to the cells from the plate prepared with 11 serial 5× dilutions of peptide for the 4° C. and 37° C. aliquot for each peptide studied, using the maximal concentrations that are indicated by the primary screen, in duplicate. This step dilutes the peptide concentration by a factor of two. The cells are incubated at room temperature for 30 minutes. […] The cells are incubated on the shaker (300 rpm) for 1 hour. Normal procedure with the DiscoveRx kit is followed. cAMP standards are included in column 12. EC50 values are determined from the cAMP assay data.

Another series addresses T1, human VPAC2 (Homo sapiens, UniProt P41587).
T1 construct: expressed in transfected cells
T1 sequence (P41587 24-438): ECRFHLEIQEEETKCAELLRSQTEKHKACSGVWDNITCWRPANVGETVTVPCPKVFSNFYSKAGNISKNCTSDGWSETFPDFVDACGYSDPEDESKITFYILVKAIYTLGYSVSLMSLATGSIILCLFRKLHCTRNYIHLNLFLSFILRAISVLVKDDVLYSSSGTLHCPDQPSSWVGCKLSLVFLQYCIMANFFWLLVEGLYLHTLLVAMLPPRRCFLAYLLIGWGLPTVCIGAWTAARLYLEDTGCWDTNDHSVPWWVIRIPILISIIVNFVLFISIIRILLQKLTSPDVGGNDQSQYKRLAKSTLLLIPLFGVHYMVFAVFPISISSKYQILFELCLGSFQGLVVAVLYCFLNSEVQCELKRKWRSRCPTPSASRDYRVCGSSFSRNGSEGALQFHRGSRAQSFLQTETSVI
Briefly: Alpha screen cAMP assay, in vitro potency at human VPAC2 receptor. Particulars: cAMP generation; single result from two analyses in a single run, some values average of more than one experiment. It is filed as cell-based.

In the next series the target is T2, human PAC1 (Homo sapiens, UniProt P41586).
T2 construct: expressed in transfected cells
T2 sequence (P41586 21-468): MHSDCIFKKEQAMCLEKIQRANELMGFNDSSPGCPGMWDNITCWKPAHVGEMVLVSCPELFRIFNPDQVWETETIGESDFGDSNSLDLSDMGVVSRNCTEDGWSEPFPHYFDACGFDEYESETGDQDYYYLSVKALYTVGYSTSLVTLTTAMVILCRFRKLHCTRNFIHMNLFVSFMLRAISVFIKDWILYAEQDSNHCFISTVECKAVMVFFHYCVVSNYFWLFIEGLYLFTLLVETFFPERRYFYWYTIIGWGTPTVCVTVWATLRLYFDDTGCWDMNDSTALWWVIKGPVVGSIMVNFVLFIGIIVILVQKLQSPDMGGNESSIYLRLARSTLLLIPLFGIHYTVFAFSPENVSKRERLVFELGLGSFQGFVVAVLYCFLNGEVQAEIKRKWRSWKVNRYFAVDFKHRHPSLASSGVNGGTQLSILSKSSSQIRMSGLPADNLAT
As to the kind of experiment: Filter binding assay, 125I-labeled PACAP-27 tracer, PAC1 membranes. Particulars: read-out: Human PAC1 Receptor Binding (IC50; nM).

The target of another series is T3, human VPAC1 (Homo sapiens, UniProt P32241).
T3 construct: expressed in transfected cells
T3 sequence (P32241 31-457): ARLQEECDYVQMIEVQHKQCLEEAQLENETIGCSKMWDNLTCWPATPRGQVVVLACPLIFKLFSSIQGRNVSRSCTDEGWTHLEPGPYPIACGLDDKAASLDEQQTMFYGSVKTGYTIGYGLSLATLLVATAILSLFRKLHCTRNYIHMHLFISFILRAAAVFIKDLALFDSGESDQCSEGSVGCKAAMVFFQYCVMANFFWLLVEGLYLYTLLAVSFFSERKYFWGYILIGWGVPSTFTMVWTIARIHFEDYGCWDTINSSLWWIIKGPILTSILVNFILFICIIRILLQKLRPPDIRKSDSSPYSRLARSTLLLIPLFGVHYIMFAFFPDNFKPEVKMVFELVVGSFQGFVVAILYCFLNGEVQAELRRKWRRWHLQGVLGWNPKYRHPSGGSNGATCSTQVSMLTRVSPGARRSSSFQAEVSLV
As to the kind of experiment: Filter binding assay, 125I-labeled VIP tracer, VPAC1 membranes. Particulars: read-out: Human VPAC1 Receptor Binding (IC50; nM).

Procedure for human VPAC1: For this assay, the solutions and equipment include:
Presoak solution: 0.5% Polyethyleneamine in Aqua dest
Buffer for flushing filter plates: 25 mM HEPES pH 7.4
Blocking buffer: 25 mM HEPES pH 7.4; 0.2% protease free BSA
Assay buffer: 25 mM HEPES pH 7.4; 0.5% protease free BSA
Dilution and assay plate: PS-Microplate, U form
Filtration Plate: Multiscreen FB Opaque Plate; 1.0 μM Type B Glasfiber filter
In order to prepare the filter plates, the presoak solution is aspirated by vacuum filtration. The plates are flushed twice with 200 μL flush buffer. 200 μL blocking buffer is added to the filter plate. The filter plate is then incubated with 200 μL presoak solution for 1 hour at room temperature.
The assay plate is filled with 25 μL assay buffer, 25 μL membranes (2.5 μg) suspended in assay buffer, 25 μL compound (agonist) in assay buffer, and 25 μL tracer (about 40000 cpm) in assay buffer. The filled plate is incubated for 1 hour with shaking.
The transfer from assay plate to filter plate is conducted. The blocking buffer is aspirated by vacuum filtration and washed two times with flush buffer. 90 μL is transferred from the assay plate to the filter plate. The 90 μL transferred from assay plate is aspirated and washed three times with 200 μL flush buffer. The plastic support is removed. It is dried for 1 hour at 60° C. 30 μL Microscint is added. The count is performed.
Procedure for human VPAC2: Alpha screen: Cells are washed in the culture flask once with PBS. Then, the cells are rinsed with enzyme free dissociation buffer. The dissociated cells are removed. The cells are then spun down and washed in stimulation buffer. For each data point, 50,000 cells suspended in stimulation buffer are used. To this buffer, Alpha screen acceptor beads are added along with the stimuli. This mixture is incubated for 60 minutes. Lysis buffer and Alpha screen donor beads are added and are incubated for 60 to 120 minutes. The Alpha screen signal (indicative of intracellular cAMP levels) is read in a suitable instrument (e.g. AlphaQuest from Perkin-Elmer). Steps including Alpha screen donor and acceptor beads are performed in reduced light. The EC50 for cAMP generation is calculated from the raw signal or is based on absolute cAMP levels as determined by a standard curve performed on each plate.
Results for each agonist are, at minimum, from two analyses performed in a single run. For some agonists, the results are the mean of more than one run. The tested peptide concentrations are: 10000, 1000, 100, 10, 3, 1, 0.1, 0.01, 0.003, 0.001, 0.0001 and 0.00001 nM.

With `CCCCCC(=O)N[C@@H](Cc1c[nH]cn1)C(=O)N[C@@H](CO)C(=O)N[C@@H](CC(=O)O)C(=O)N[C@@H](C)C(=O)N[C@H](C(=O)N[C@@H](Cc1ccccc1)C(=O)N[C@H](C(=O)N[C@@H](CC(=O)O)C(=O)N[C@@H](CC(N)=O)C(=O)N[C@@H](Cc1ccc(O)cc1)C(=O)N[C@H](C(=O)N[C@@H](CCCN)C(=O)N[C@@H](CC(C)C)C(=O)N[C@@H](CCCNC(=N)N)C(=O)NC(C)(C)C(=O)N[C@@H](CCC(N)=O)C(=O)N[C@H](C(=O)N[C@@H](C)C(=O)N[C@@H](C)C(=O)NC(C)(C)C(=O)N[C@@H](CCCN)C(=O)N[C@@H](Cc1ccc(O)cc1)C(=O)N[C@@H](CC(C)C)C(=O)N[C@@H](CCC(N)=O)C(=O)N[C@@H](CO)C(=O)N[C@H](C(=O)N[C@@H](CCCN)C(=O)N[C@@H](CCCN)C(=O)NCC(=O)NCC(=O)N1CCC[C@H]1C(=O)N[C@@H](CO)C(=O)N[C@@H](CO)C(=O)NCC(=O)N[C@@H](C)C(=O)N1CCC[C@H]1C(=O)N1CCC[C@H]1C(=O)N1CCC[C@H]1C(=O)N[C@@H](CO)C(=O)O)[C@@H](C)CC)C(C)C)[C@@H](C)O)[C@@H](C)O)C(C)C` [Agonist P397] (Hexanoyl-HSDAVFTDNYT[Orn]LR[Aib]QVAA[Aib][Orn]YLQSI[Orn][Orn]GGPSSGAPPPS-OH; C-terminus assumed), in series [1], the “Rat Serum Stability (estimated purity in % after overnight incub.)” value was 71.07%. Moreover, at human VPAC2, the EC50 (commonly the concentration at which the effect is half-maximal) is 0.15 nM. Moreover, the values for the half-maximal inhibitory concentration (IC50) on human PAC1 and on human VPAC1 were over 25000 nM and over 3000 nM, respectively.
Turning to `CCCCCC(=O)N[C@@H](Cc1c[nH]cn1)C(=O)N[C@@H](CO)C(=O)N[C@@H](CC(=O)O)C(=O)N[C@@H](C)C(=O)N[C@H](C(=O)N[C@@H](Cc1ccccc1)C(=O)N[C@H](C(=O)N[C@@H](CC(=O)O)C(=O)N[C@@H](CC(N)=O)C(=O)N[C@@H](Cc1ccc(O)cc1)C(=O)N[C@H](C(=O)N[C@@H](CCCN)C(=O)N[C@@H](CC(C)C)C(=O)N[C@@H](CCCNC(=N)N)C(=O)NC(C)(C)C(=O)N[C@@H](CCC(N)=O)C(=O)N[C@H](C(=O)N[C@@H](C)C(=O)N[C@@H](C)C(=O)NC(C)(C)C(=O)N[C@@H](CO)C(=O)N[C@@H](Cc1ccc(O)cc1)C(=O)N[C@@H](CC(C)C)C(=O)N[C@@H](CCC(N)=O)C(=O)N[C@@H](CO)C(=O)N[C@H](C(=O)N[C@@H](CCCN)C(=O)N[C@@H](CC(N)=O)C(=O)N[C@@H](CCCN)C(=O)NCC(=O)NCC(=O)N1CCC[C@H]1C(=O)N[C@@H](CO)C(=O)N[C@@H](CO)C(=O)NCC(=O)N[C@@H](C)C(=O)N1CCC[C@H]1C(=O)N1CCC[C@H]1C(=O)N1CCC[C@H]1C(=O)N[C@@H](CO)C(=O)O)[C@@H](C)CC)C(C)C)[C@@H](C)O)[C@@H](C)O)C(C)C` [Agonist P386] (Hexanoyl-HSDAVFTDNYT[Orn]LR[Aib]QVAA[Aib]SYLQSI[Orn]N[Orn]GGPSSGAPPPS-OH; C-terminus assumed), the “Rat Serum Stability (estimated purity in % after overnight incub.)” value in series [1] is given as 71.47%. At human VPAC2, this compound gave a half-maximal effective concentration (EC50) of 0.65 nM. Also, the IC50 (usually the concentration that inhibits the measured activity by half) on human PAC1 is over 25000 nM; at human VPAC1, over 3000 nM.
On the same counts, the results for `CCCCCC(=O)N[C@@H](Cc1c[nH]cn1)C(=O)N[C@@H](CO)C(=O)N[C@@H](CC(=O)O)C(=O)N[C@@H](C)C(=O)N[C@H](C(=O)N[C@@H](Cc1ccccc1)C(=O)N[C@H](C(=O)N[C@@H](CC(=O)O)C(=O)N[C@@H](CC(N)=O)C(=O)N[C@@H](Cc1ccc(O)cc1)C(=O)N[C@H](C(=O)N[C@@H](CCCNC(=N)N)C(=O)N[C@@H](CC(C)C)C(=O)N[C@@H](CCCNC(=N)N)C(=O)NC(C)(C)C(=O)N[C@@H](CCC(N)=O)C(=O)N[C@H](C(=O)N[C@@H](C)C(=O)N[C@@H](C)C(=O)NC(C)(C)C(=O)N[C@@H](CCCCN)C(=O)N[C@@H](Cc1ccc(O)cc1)C(=O)N[C@@H](CC(C)C)C(=O)N[C@@H](CCC(N)=O)C(=O)N[C@@H](CO)C(=O)N[C@H](C(=O)N[C@@H](CCCCN)C(=O)NC(C)(C)C(=O)N[C@@H](CCCN)C(=O)NCC(=O)NCC(=O)N1CCC[C@H]1C(=O)N[C@@H](CO)C(=O)N[C@@H](CO)C(=O)NCC(=O)N[C@@H](C)C(=O)N1CCC[C@H]1C(=O)N1CCC[C@H]1C(=O)N1CCC[C@H]1C(=O)N[C@@H](CO)C(=O)O)[C@@H](C)CC)C(C)C)[C@@H](C)O)[C@@H](C)O)C(C)C` [Agonist P357] are 38.83%, 0.23 nM, over 25000 nM and over 3000 nM.
Compound `CCCCCC(=O)N[C@@H](Cc1c[nH]cn1)C(=O)N[C@@H](CO)C(=O)N[C@@H](CC(=O)O)C(=O)N[C@@H](C)C(=O)N[C@H](C(=O)N[C@@H](Cc1ccccc1)C(=O)N[C@H](C(=O)N[C@@H](CC(=O)O)C(=O)N[C@@H](CC(N)=O)C(=O)N[C@@H](Cc1ccc(O)cc1)C(=O)N[C@H](C(=O)N[C@@H](CCCN)C(=O)N[C@@H](CO)C(=O)N[C@@H](CCCNC(=N)N)C(=O)NC(C)(C)C(=O)N[C@@H](CCC(N)=O)C(=O)N[C@H](C(=O)N[C@@H](C)C(=O)N[C@@H](C)C(=O)NC(C)(C)C(=O)N[C@@H](CCCCN)C(=O)N[C@@H](Cc1ccc(O)cc1)C(=O)N[C@@H](CC(C)C)C(=O)N[C@@H](CCC(N)=O)C(=O)N[C@@H](CO)C(=O)N[C@H](C(=O)N[C@@H](CCCN)C(=O)N[C@@H](CC(N)=O)C(=O)N[C@@H](CCCN)C(=O)NCC(=O)NCC(=O)N1CCC[C@H]1C(=O)N[C@@H](CO)C(=O)N[C@@H](CO)C(=O)NCC(=O)N[C@@H](C)C(=O)N1CCC[C@H]1C(=O)N1CCC[C@H]1C(=O)N1CCC[C@H]1C(=O)N[C@@H](CO)C(=O)O)[C@@H](C)CC)C(C)C)[C@@H](C)O)[C@@H](C)O)C(C)C` [Agonist P391] (Hexanoyl-HSDAVFTDNYT[Orn]SR[Aib]QVAA[Aib]KYLQSI[Orn]N[Orn]GGPSSGAPPPS-OH; C-terminus assumed) returned an EC50 at human VPAC2 of 0.48 nM. The IC50 on human PAC1 was over 25000 nM.
